Assays:
barnyardgrass [1] = experiment: Test B pre-/postemergence herbicide test; format: in vivo, Echinochloa crus-galli; details: for Plant response rating (0 to 100 scale), Barnyardgrass: 0 is no effect, 100 is complete control, preemergence; for Barnyardgrass plant response rating: Postemergence, scale 0 (no effect) to 100 (complete control)
Outline: (§1)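 Response was scored visually 13 to 15 days after treatment against untreated greenhouse controls, 0 meaning no effect and 100 complete control. Formulations (solvent mixture plus surfactant) went onto soil after planting, onto foliage of 1- to 4-leaf plants, and onto 2-leaf plants in a flooded paddy set including rice and barnyardgrass.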

Surinam grass = experiment: Test B pre-/postemergence herbicide test; format: in vivo, Urochloa decumbens; details: for Plant response rating (0 to 100 scale), Surinam Grass: 0 is no effect, 100 is complete control, preemergence
Outline: (§2)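 Herbicidal effect was judged by eye on a 0–100 scale after plants stood 13 to 15 days in the greenhouse following pre- or postemergence treatment with surfactant-containing formulations.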

cocklebur = experiment: Test B pre-/postemergence herbicide test; format: in vivo, Xanthium strumarium; details: for Plant response rating (0 to 100 scale), Cocklebur: 0 is no effect, 100 is complete control, preemergence
Outline: as §1

corn = experiment: Test B pre-/postemergence herbicide test; format: in vivo, Zea mays; details: for Plant response rating (0 to 100 scale), Corn: 0 is no effect, 100 is complete control, preemergence
Outline: as §2

large crabgrass = experiment: Test B pre-/postemergence herbicide test; format: in vivo, Digitaria sanguinalis; details: for Plant response rating (0 to 100 scale), Crabgrass, Large: 0 is no effect, 100 is complete control, preemergence
Outline: as §2

giant foxtail = experiment: Test B pre-/postemergence herbicide test; format: in vivo, Setaria faberi; details: for Plant response rating (0 to 100 scale), Foxtail, Giant: 0 is no effect, 100 is complete control, preemergence
Outline: as §2

lambsquarters = experiment: Test B pre-/postemergence herbicide test; format: in vivo, Chenopodium album; details: for Plant response rating (0 to 100 scale), Lambsquarters: 0 is no effect, 100 is complete control, preemergence
Outline: as §2

morningglory = experiment: Test B pre-/postemergence herbicide test; format: in vivo, Ipomoea coccinea; details: for Plant response rating (0 to 100 scale), Morningglory: 0 is no effect, 100 is complete control, preemergence
Outline: as §1

pigweed = experiment: Test B pre-/postemergence herbicide test; format: in vivo, Amaranthus retroflexus; details: for Plant response rating (0 to 100 scale), Pigweed: 0 is no effect, 100 is complete control, preemergence
Outline: as §2

velvetleaf = experiment: Test B pre-/postemergence herbicide test; format: in vivo, Abutilon theophrasti; details: for Plant response rating (0 to 100 scale), Velvetleaf: 0 is no effect, 100 is complete control, preemergence
Outline: as §2

blackgrass = experiment: Test B postemergence herbicide test; format: in vivo, Alopecurus myosuroides
Outline: (§3)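 Visual control ratings, 0–100 versus untreated controls, taken after 13 to 15 days in the greenhouse. Blackgrass received a postemergence spray at the 1- to 4-leaf stage (2–18 cm); ducksalad, umbrella sedge and barnyardgrass were flooded-paddy treated at 2 leaves.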

wheat = experiment: Test B postemergence herbicide test; format: in vivo, Triticum aestivum; parameters: key to Wheat plant response rating: 0 = no effect, 100 = complete control
Outline: (§4)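 Treated at 2-leaf (paddy) or 1–4-leaf, 2–18 cm (postemergence); greenhouse 13–15 d; visual score vs control, 0 none to 100 complete control; dash = not tested.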

wild oat = experiment: Test B postemergence herbicide test; format: in vivo, Avena fatua
Outline: as §4

rice = experiment: Test B flooded paddy test; format: in vivo, Oryza sativa; details: scale 0 to 100 (0 no effect, 100 complete control)
Outline: as §4

[2] = test system: small flower umbrella sedge; experiment: Test B flooded paddy test; format: in vivo, Cyperus difformis; details: scale 0 to 100 (0 no effect, 100 complete control)
Outline: as §3

ducksalad = experiment: Test B flooded paddy test; format: in vivo, Heteranthera limosa; details: scale 0 to 100 (0 no effect, 100 complete control)
Outline: as §3

barnyardgrass [3] = experiment: Test B flooded paddy test; format: in vivo, Echinochloa crus-galli; details: scale 0 to 100 (0 no effect, 100 complete control)
Outline: as §3

[4] = Postemergence, 500 g ai/ha, scale 0 (no effect) to 100 (complete control)
[5] = postemergence, 125 g ai/ha, scale 0 to 100
[6] = 500 g ai/ha, scale 0 to 100, 0 no effect, 100 complete control, preemergence

Compound: Cc1nn(C(C)(C)C)nc1C(=O)Nc1cncc(C(=O)N(C)C)c1 [Compound 426]
- Plant response rating (0 to 100 scale), Barnyardgrass (barnyardgrass [1]; 125 g ai/ha): 10
- Barnyardgrass plant response rating (barnyardgrass [1]; 125 g ai/ha): 0
- Barnyardgrass plant response rating (barnyardgrass [1]; 500 g ai/ha): 20
- Plant response rating (0 to 100 scale), Surinam Grass (Surinam grass; 125 g ai/ha): 10
- Surinam Grass plant response rating (Surinam grass; [4]): 20
- Surinam Grass plant response rating (Surinam grass; [5]): 10
- Plant response rating (0 to 100 scale), Cocklebur (cocklebur; 125 g ai/ha): 0
- Cocklebur plant response rating (cocklebur; [4]): 20
- Cocklebur plant response rating (cocklebur; [5]): 10
- Plant response rating (0 to 100 scale), Corn (corn; 125 g ai/ha): 0
- Corn plant response rating (corn; [4]): 10
- Corn plant response rating (corn; [5]): 10
- Plant response rating (0 to 100 scale), Crabgrass, Large (large crabgrass; 125 g ai/ha): 70
- Crabgrass, Large plant response rating (large crabgrass; [4]): 20
- Crabgrass, Large plant response rating (large crabgrass; [5]): 10
- Plant response rating (0 to 100 scale), Foxtail, Giant (giant foxtail; 125 g ai/ha): 0
- Foxtail, Giant plant response rating (giant foxtail; [4]): 30
- Foxtail, Giant plant response rating (giant foxtail; [5]): 20
- Plant response rating (0 to 100 scale), Lambsquarters (lambsquarters; 125 g ai/ha): 40
- Lambsquarters plant response rating (lambsquarters; [4]): 50
- Lambsquarters plant response rating (lambsquarters; [5]): 20
- Plant response rating (0 to 100 scale), Morningglory (morningglory; 125 g ai/ha): 0
- Morningglory plant response rating (morningglory; [4]): 50
- Morningglory plant response rating (morningglory; [5]): 20
- Plant response rating (0 to 100 scale), Pigweed (pigweed; 125 g ai/ha): 50
- Pigweed plant response rating (pigweed; [4]): 50
- Pigweed plant response rating (pigweed; [5]): 30
- Plant response rating (0 to 100 scale), Velvetleaf (velvetleaf; 125 g ai/ha): 10
- Velvetleaf plant response rating (velvetleaf; [4]): 40
- Velvetleaf plant response rating (velvetleaf; [5]): 30
- Blackgrass plant response rating (blackgrass; [4]): 0
- Blackgrass plant response rating (blackgrass; [5]): 0
- Wheat plant response rating (wheat; [6]): 10
- Wheat plant response rating (wheat; [4]): 0
- Wheat plant response rating (wheat; [5]): 0
- Oat, Wild plant response rating (wild oat; [4]): 0
- Oat, Wild plant response rating (wild oat; [5]): 0
- Rice plant response rating (rice; 1000 g ai/ha): 0
- Sedge, Umbrella plant response rating ([2]; 1000 g ai/ha): 70
- Ducksalad plant response rating (ducksalad; 1000 g ai/ha): 70
- Barnyardgrass plant response rating (barnyardgrass [3]; 1000 g ai/ha): 0

Compound: CC(C)(C)n1nc(Br)c(C(=O)Nc2cccc(C(=O)N3CC=CC3)c2)n1 [Compound 433]
- Plant response rating (0 to 100 scale), Barnyardgrass (barnyardgrass [1]; 125 g ai/ha): 50
- Barnyardgrass plant response rating (barnyardgrass [1]; 125 g ai/ha): 10
- Barnyardgrass plant response rating (barnyardgrass [1]; 500 g ai/ha): 20
- Plant response rating (0 to 100 scale), Surinam Grass (Surinam grass; 125 g ai/ha): 20
- Surinam Grass plant response rating (Surinam grass; [4]): 30
- Surinam Grass plant response rating (Surinam grass; [5]): 20
- Plant response rating (0 to 100 scale), Cocklebur (cocklebur; 125 g ai/ha): 10
- Cocklebur plant response rating (cocklebur; [4]): 90
- Cocklebur plant response rating (cocklebur; [5]): 40
- Plant response rating (0 to 100 scale), Corn (corn; 125 g ai/ha): 10
- Corn plant response rating (corn; [4]): 30
- Corn plant response rating (corn; [5]): 20
- Plant response rating (0 to 100 scale), Crabgrass, Large (large crabgrass; 125 g ai/ha): 90
- Crabgrass, Large plant response rating (large crabgrass; [4]): 30
- Crabgrass, Large plant response rating (large crabgrass; [5]): 20
- Plant response rating (0 to 100 scale), Foxtail, Giant (giant foxtail; 125 g ai/ha): 60
- Foxtail, Giant plant response rating (giant foxtail; [4]): 40
- Foxtail, Giant plant response rating (giant foxtail; [5]): 30
- Plant response rating (0 to 100 scale), Lambsquarters (lambsquarters; 125 g ai/ha): 70
- Lambsquarters plant response rating (lambsquarters; [4]): 80
- Lambsquarters plant response rating (lambsquarters; [5]): 40
- Plant response rating (0 to 100 scale), Morningglory (morningglory; 125 g ai/ha): 40
- Morningglory plant response rating (morningglory; [4]): 80
- Morningglory plant response rating (morningglory; [5]): 50
- Plant response rating (0 to 100 scale), Pigweed (pigweed; 125 g ai/ha): 100
- Pigweed plant response rating (pigweed; [4]): 70
- Pigweed plant response rating (pigweed; [5]): 50
- Plant response rating (0 to 100 scale), Velvetleaf (velvetleaf; 125 g ai/ha): 40
- Velvetleaf plant response rating (velvetleaf; [4]): 50
- Velvetleaf plant response rating (velvetleaf; [5]): 10
- Blackgrass plant response rating (blackgrass; [4]): 40
- Blackgrass plant response rating (blackgrass; [5]): 30
- Wheat plant response rating (wheat; [6]): 50
- Wheat plant response rating (wheat; [4]): 50
- Wheat plant response rating (wheat; [5]): 40
- Oat, Wild plant response rating (wild oat; [4]): 60
- Oat, Wild plant response rating (wild oat; [5]): 50
- Rice plant response rating (rice; 125 g ai/ha): 0
- Sedge, Umbrella plant response rating ([2]; 125 g ai/ha): 70
- Ducksalad plant response rating (ducksalad; 125 g ai/ha): 60
- Barnyardgrass plant response rating (barnyardgrass [3]; 125 g ai/ha): 30

Compound: C=CCN(CC=C)C(=O)c1cccc(NC(=O)c2nn(C(C)(C)C)nc2C)n1 [Compound 439]
- Barnyardgrass plant response rating (barnyardgrass [1]; 125 g ai/ha): 0
- Barnyardgrass plant response rating (barnyardgrass [1]; 500 g ai/ha): 0
- Surinam Grass plant response rating (Surinam grass; [4]): 0
- Surinam Grass plant response rating (Surinam grass; [5]): 0
- Cocklebur plant response rating (cocklebur; [4]): 0
- Cocklebur plant response rating (cocklebur; [5]): 0
- Corn plant response rating (corn; [4]): 0
- Corn plant response rating (corn; [5]): 0
- Crabgrass, Large plant response rating (large crabgrass; [4]): 0
- Crabgrass, Large plant response rating (large crabgrass; [5]): 0
- Foxtail, Giant plant response rating (giant foxtail; [4]): 0
- Foxtail, Giant plant response rating (giant foxtail; [5]): 0
- Lambsquarters plant response rating (lambsquarters; [4]): 0
- Lambsquarters plant response rating (lambsquarters; [5]): 0
- Morningglory plant response rating (morningglory; [4]): 30
- Morningglory plant response rating (morningglory; [5]): 0
- Pigweed plant response rating (pigweed; [4]): 10
- Pigweed plant response rating (pigweed; [5]): 0
- Velvetleaf plant response rating (velvetleaf; [4]): 0
- Velvetleaf plant response rating (velvetleaf; [5]): 0
- Blackgrass plant response rating (blackgrass; [4]): 10
- Blackgrass plant response rating (blackgrass; [5]): 0
- Wheat plant response rating (wheat; [6]): 0
- Wheat plant response rating (wheat; [4]): 10
- Wheat plant response rating (wheat; [5]): 0
- Oat, Wild plant response rating (wild oat; [4]): 10
- Oat, Wild plant response rating (wild oat; [5]): 0
- Rice plant response rating (rice; 125 g ai/ha): 0
- Sedge, Umbrella plant response rating ([2]; 125 g ai/ha): 0
- Ducksalad plant response rating (ducksalad; 125 g ai/ha): 0
- Barnyardgrass plant response rating (barnyardgrass [3]; 125 g ai/ha): 0

— patent publication US20060069132A1, “Azolecarboxamide herbicides” (priority 2004, published 2006)
